Converted amounts (≈) assume the structure as drawn. Read-outs that look alike come from different tables or passages of the source.
What was measured:
[1] = physchem; conditions: 25 °C, water, thermodynamic from solid
[2] = Merck Index, Material Safety Data Sheets or general statement, cited from earlier work
[3] = 72 h
[4] = Solubility test: low-solubility compound in water or in water solutions containing 10% w/v natural solubilizer, quantified by HPLC/LC-MS; conditions: 25° C. 72 hr; for Concentration in water solution With Geniposide: 10% w/v geniposide in water; for Concentration in water solution With Mogroside V: 10% w/v mogroside V in water; for Concentration in water solution With Paeoniflorin: 10% w/v paeoniflorin in water; for Concentration in water solution With Rebaudioside A: 10% w/v rebaudioside A in water; for Concentration in water solution With Rubusoside: 10% w/v rubusoside in water
[5] = physchem; conditions: water
[6] = Safety of daily consumption of steviol glycosides (estimates based on aglycone steviol); assay type: in vivo
[7] = in vivo; cited from earlier work
[8] = system: hypertensive rats; conditions: intraperitoneal, 50 mg/kg and 100 mg/kg body weight, hypertensive rats (Hsu et al. 2002); cited from earlier work
[9] = cyclodextrins, comparison; cited from earlier work

SMILES	Water solubility in words [2]	Concentration in water solution With Astragaloside [3] [ng/mL]	Concentration in water solution With Geniposide [3] [ng/mL]	Concentration in water solution With Mogroside V [3] [ng/mL]	Concentration in water solution With Paeoniflorin [3] [ng/mL]	Concentration in water solution With Rubusoside [3] [ng/mL]	further results
C[C@@H]1CC[C@H]2[C@@H](C)C(=O)O[C@@H]3O[C@@]4(C)CC[C@@H]1[C@]32OO4 [Artemisinin, artemisinin, reference compound]	poorly soluble	0	146000	148000	218000	280000	solubility at 72 h [1]: 53 µg/mL (≈ 0.188 mM); Water solubility in words ([2]; listed as artemisinin): insoluble
CC[C@@]1(O)C(=O)OCc2c1cc1n(c2=O)Cc2cc3ccccc3nc2-1 [Camptothecin, camptothecin]	poor solubility in water	–	–	–	–	–	Water solubility in words ([2]; listed as camptothecin): insoluble; Concentration in water solution With Geniposide [4]: 25000 ng/mL; Concentration in water solution With Mogroside V [4]: 18000 ng/mL; Concentration in water solution With Paeoniflorin [4]: 53000 ng/mL; Concentration in water solution With Paeoniflorin ([4]; listed as camptothecin): 54000 ng/mL; Concentration in water solution With Rebaudioside A [4]: 48000 ng/mL; Concentration in water solution With Rubusoside [4]: 61000 ng/mL
Cc1ccc(-c2cc(C(F)(F)F)nn2-c2ccc(S(N)(=O)=O)cc2)cc1 [Celecoxib, celecoxib, reference compound]	poor solubility in water	0	3000	47000	253000	488000	Water solubility in words ([2]; listed as celecoxib): water insoluble; Solubility in water without solubilizer [3]: 0^2 μg/mL
CC(C)/N=c1\cc2n(-c3ccc(Cl)cc3)c3ccccc3nc-2cc1Nc1ccc(Cl)cc1 [Clofazimine, clofazimine, reference compound]	practically insoluble in water	400	48000	58000	565000	132000	solubility at 72 h [1]: 7.6 µg/mL (≈ 0.0161 mM); Concentration in water solution With Rebaudioside A [3]: 109000 ng/mL; Concentration in water solution With Steviol monoside [3]: 0 ng/mL; Concentration in water solution With Stevioside [3]: 64000 ng/mL
COC1=C(OC)C(=O)C(C/C=C(\C)CC/C=C(\C)CC/C=C(\C)CC/C=C(\C)CC/C=C(\C)CC/C=C(\C)CC/C=C(\C)CC/C=C(\C)CC/C=C(\C)CCC=C(C)C)=C(C)C1=O [Coenzyme Q10, coenzyme Q10]	insolubility in water	–	–	–	–	111000	–
COc1cc(/C=C/C(=O)CC(=O)/C=C/c2ccc(O)c(OC)c2)ccc1O [Curcumin, curcumin]	insoluble in water	0	4000	44000	5000	262000	Water solubility in words ([2]; listed as curcumin): insoluble; Concentration in water solution With Steviol monoside [3]: 4000 ng/mL
C[C@H]1O[C@@H](O[C@H]2[C@@H](O)C[C@H](O[C@H]3[C@@H](O)C[C@H](O[C@H]4CC[C@@]5(C)[C@H](CC[C@@H]6[C@@H]5C[C@@H](O)[C@]5(C)[C@@H](C7=CC(=O)OC7)CC[C@]65O)C4)O[C@@H]3C)O[C@@H]2C)C[C@H](O)[C@@H]1O [Digoxin, digoxin]	–	–	–	–	–	–	solubility [1]: 19 µg/mL (≈ 0.0243 mM)
CO[C@H]1C[C@H](O[C@H]2CC[C@@]3(C)[C@H](CC[C@@H]4[C@@H]3CC[C@]3(C)[C@@H](C5=CC(=O)OC5)[C@@H](OC(C)=O)C[C@]43O)C2)O[C@@H](C)[C@@H]1O [Oleandrin, oleandrin]	practically insoluble in water	–	–	–	–	–	solubility [1]: 3 µg/mL (≈ 0.0052 mM); Concentration in water solution With Geniposide [4]: 28000 ng/mL; Concentration in water solution With Mogroside V [4]: 47000 ng/mL; Concentration in water solution With Paeoniflorin [4]: 42000 ng/mL; Concentration in water solution With Rebaudioside A [4]: 67000 ng/mL; Concentration in water solution With Rubusoside [4]: 123000 ng/mL; Concentration in water solution With Stevioside ([4]; 10% w/v stevioside in water): 74000 ng/mL; Concentration in water solution With Astragaloside ([4]; nominal 10% w/v astragaloside IV in water (precipitated, less than 10%)): 5000 ng/mL; Concentration in water solution With Steviol monoside ([4]; nominal 10% w/v steviol monoside in water (precipitated, less than 10%)): 7000 ng/mL
CC(=O)O[C@H]1C(=O)[C@@]2(C)[C@H]([C@H](OC(=O)c3ccccc3)[C@]3(O)C[C@H](OC(=O)[C@H](O)[C@@H](NC(=O)c4ccccc4)c4ccccc4)C(C)=C1C3(C)C)[C@]1(OC(C)=O)CO[C@@H]1C[C@@H]2O [Paclitaxel, paclitaxel, reference compound]	not soluble in water	–	1000	7000	20000	65000	Water solubility in words ([2]; listed as paclitaxel): insoluble; Concentration in water solution With Rebaudioside A [3]: 26000 ng/mL
C=C1C[C@@]23CC[C@H]4[C@@](C)(CCC[C@@]4(C)C(=O)O[C@@H]4O[C@H](CO)[C@@H](O)[C@H](O)[C@H]4O)[C@@H]2CC[C@]1(O[C@@H]1O[C@H](CO)[C@@H](O)[C@H](O)[C@H]1O)C3 [Rubusoside, b-D-glucosyl ester of 13-O-b-D-glucosyl-steviol]	good solubility in water	–	–	–	–	–	solubility ([5]; 25 °C): ~400000 µg/mL (≈ 622 mM); solubility ([5]; 37 °C): ~800000 µg/mL (≈ 1240 mM); No-observed-effect level ([6]; estimate based on 383 mg/kg body weight daily expressed as steviol): up to 766 mg rubusoside/kg body weight; Daily consumption that is safe and has no adverse effect ([6]; estimate based on the aglycone steviol): 8 mg rubusoside/kg body weight
COc1cc(C2Oc3cc([C@H]4Oc5cc(O)cc(O)c5C(=O)[C@@H]4O)ccc3OC2CO)ccc1O (some centres unmarked) [Silybin, silybin]	–	0	16000	18000	37000	150000	Solubility in water without solubilizer [3]: 0^2 μg/mL
Cc1coc2c1C(=O)C(=O)c1c-2ccc2c1CCCC2(C)C [Tanshinone IIA, tanshinone IIA]	–	0	100	500	23000	127000	Solubility in water without solubilizer [3]: 0^2 μg/mL
CCC(C)n1ncn(-c2ccc(N3CCN(c4ccc(OCC5COC(Cn6cncn6)(c6ccc(Cl)cc6Cl)O5)cc4)CC3)cc2)c1=O (centres unmarked) [itraconazole, reference compound]	practically insoluble in water	–	–	–	–	–	–
C=C1C[C@@]23CC[C@H]4[C@@](C)(CCC[C@@]4(C)C(=O)O)[C@@H]2CC[C@]1(O)C3 [steviol]	–	–	–	–	–	–	No-observed-effect level expressed as steviol [7]: 383 mg/kg body weight daily
C=C1C[C@@]23CC[C@H]4[C@@](C)(CCC[C@@]4(C)C(=O)O[C@@H]4O[C@H](CO)[C@@H](O)[C@H](O)[C@H]4O)[C@@H]2CC[C@]1(O[C@@H]1O[C@H](CO)[C@@H](O)[C@H](O)[C@H]1O[C@@H]1O[C@H](CO)[C@@H](O)[C@H](O)[C@H]1O)C3 [stevioside]	–	–	–	–	–	–	Adverse effects [8]: no adverse effects
OC[C@H]1O[C@@H]2O[C@H]3[C@H](O)[C@@H](O)[C@@H](O[C@H]4[C@H](O)[C@@H](O)[C@@H](O[C@H]5[C@H](O)[C@@H](O)[C@@H](O[C@H]6[C@H](O)[C@@H](O)[C@@H](O[C@H]7[C@H](O)[C@@H](O)[C@@H](O[C@H]1[C@H](O)[C@H]2O)O[C@@H]7CO)O[C@@H]6CO)O[C@@H]5CO)O[C@@H]4CO)O[C@@H]3CO [α-CD]	–	–	–	–	–	–	Solubility in water [9]: 15 g/100 mL

Source: US8551507B2, “Terpene glycosides and their combinations as solubilizing agents” (Board of Supervisors of Louisiana State University And …, priority 2009, dated 2013)
